This note sets out measurements from patent publication EP0409236A1, “Optically active naphthylethanol derivative” (Eisai Co., Ltd., priority 1989, dated 1991).

In assay [1] the test system is pyramidal cells in the CA1 region of the gerbil hippocampus. In words: Effect on ischemia-induced neuronal damage in the gerbil hippocampus. It counts as in vivo. The following applies: i.p., one hour before 5-min ischemia, normal pyramidal cells in 0.105 x 1.175 mm² of CA1, one week later. The text has this:
Effect on ischemia-induced neuronal damage in the gerbil hippo- campus
Kirino reported that a brief cerebral ischemia caused the destruction of the pyramidal cells in the CA1 region of the gerbil hippocampus [Brain Res. 239: 57-69 (1982)]. Effect of the compound(B) on this ischemia-induced neuronal damage was examined.
The compounds were intraperitoneally administered to each animal and one hour later 5-min ischemia was produced by clamping both common carotid arteries. One week after the 5-min ischemia gerbils were fixed by transcardiac perfusion of fixative which consisted of 4% formaldehyde in phosphate buffer (pH 7.4). The fixed brain was embedded in paraffin and semi-thin (3 µm) sections were cut at a level of the dorsal hippocampus. The sections were stained with feulgen for cell counting by an image-analyzing computer. Normal pyramidal cells in the area of 0.105 x 1.175 mm² were counted.

Another assay relates to male ddy mice. Put plainly: Effect on KCN-induced mortality in mice. The following applies: mouse, in vivo; hydrochloride.

“And” between values parts separate entries of the source, which are not always exact repeats. Equal entries are not always repeated. Structures can show the parent of a compound that is named as a salt.

In the case of “(R)-(-)-2-[4-(p-Fluorobenzoyl)-1-piperidylj-1-naphthylethanol hydrochloride [ℓ-isomer of compound (B)]”, the “neuronal density mean ± SEM” value is 1.9 ± 0.5 in assay [1] (3 mg/kg), 17.2 ± 5.2 in assay [1] (10 mg/kg) and 12.0 ± 3.4 in assay [1] (30 mg/kg). In the assay with male ddy mice, the “Survival time (sec) mean ± SEM” value is 40.2 ± 1.8 s and 43.0 ± 1.8 s and 44.8 ± 1.9 s.
Consider `O=C(c1ccc(F)cc1)C1CCN(C[C@@H](O)c2ccc3ccccc3c2)CC1` [d-isomer of compound (B), hydrochloride], for which the “neuronal density mean ± SEM” value in assay [1] (1 mg/kg) is 9.3 ± 4.6; in assay [1] (3 mg/kg) it was 16.5 ± 4.0; in assay [1] (10 mg/kg), 34.6 ± 1.1. In addition, the “Survival time (sec) mean ± SEM” value in the assay with male ddy mice is 52.4 ± 2.4 s and 50.1 ± 1.6 s and 62.5 ± 4.4 s.
